In US20160228420A1, “POLYETHYLENE GLYCOL-CONTAINING COMPOSITION” (SANTEN PHARMACEUTICAL CO., LTD., priority 2013, published 2016):

Assays:
[1] = repeated oral administration; disclosed in Patent Document 2; cited from earlier work
[2] = disclosed in Patent Document 2; cited from earlier work
[3] = tested on: VEGF induced retinal vascular permeability promotion; test: VEGF induced rabbit retinal vascular permeability promotion model; format: in vivo; details: 0.5 mg/eye intravitreal in PEG 400; VEGF 2 months after administration; vitreous fluorescein 2 days after VEGF
Experimental: By using the VEGF induced rabbit retinal vascular permeability promotion model, usefulness of the polyethylene glycol 400 formulation of Compound A was evaluated. Incidentally, the VEGF has been reported to promote retinochoroidal vascular permeability by intravitreal administration (Invest Ophthalmol Vis Sci. 2013; 54(1):503-11.), and has generally been used for preparation of a pathological condition accompanied by retinal and choroidal vascular disorder (for example, diabetic retinopathy, diabetic macular edema, retinal vein occlusion, retinal artery occlusion, exudative age-related macular degeneration, etc.).
To 1.5 g of the present compound A was added 12 mL of polyethylene glycol 400 (NOF CORPORATION) and the mixture was stirred, and after confirming the dissolution thereof, a suitable amount of polyethylene glycol 400 was added to make the whole amount 15 mL. […]
After 2 days from the VEGF administration, 0.1 mL/kg of a 10% fluorescein solution was intravenously administered to rabbits. After 2 hours from administration of the fluorescein, the fluorescein concentration in the vitreous body was measured by fluorophotometry, and this was used as an index of the retinal vascular permeability.
Thereafter, according to Formula 1, an inhibition ratio (%) of the administered medicine to the retinal vascular permeability promotion caused by VEGF was calculated. […]

In the case of `O=C(CO)Nc1cc(CSc2ncccc2C(=O)Nc2ccc(OC(F)(F)F)cc2)ccn1.O=S(=O)(O)c1ccccc1` [2-[[[2-[(hydroxyacetyl)amino]-4-pyridinyl]methyl]thio]-N-[4-(trifluoromethoxy)phenyl]-3-pyridinecaboxamide], the “deposition of minerals in the stomach” value [1] is listed as “no deposition of minerals is recognized” and the storage stability [2] is listed as “excellent”.

With `O=C(CO)Nc1cc(CSc2ncccc2C(=O)Nc2ccc(OC(F)(F)F)cc2)ccn1` [Compound A, 2-[[[2-[(hydroxyacetyl)amino]-4-pyridinyl]methyl]thio]-N-[4-(trifluoromethoxy)phenyl]-3-pyridinecaboxamide] the “Inhibition ratio (%) (retinal vascular permeability)” value [3] was 95.3%.
